Data reported in patent publication US6994841B1, “Relating to magnetic resonance imaging” (Kucharczyk and Moseley Partners, priority 1990, dated 2006).

Key:
[1] = test system: cat brain after right middle cerebral artery (MCA) occlusion; test: DyDTPA-BMA-enhanced T2-weighted spin-echo MRI of cerebral perfusion deficit after MCA occlusion; assay type: in vivo; settings: for signal difference between ischemic and contralateral control tissue: mean ± S.E.M.
Method: Young adult cats weighing 2.0 to 4.5 kg were anaesthetized with 30 mg/kg i.v. Nembutal. Polyethylene catheters were placed in the femoral artery and vein for blood pressure monitoring and drug administration. The right middle cerebral artery (MCA) was isolated via the transorbital approach and occluded just proximal to the origin of the lateral striate arteries with bipolar electrocautery followed by complete surgical transection. The dural incision and orbit were covered with saline moistened gauze and absorbable gelatin sponge.
A General Electric CSI (2 Tesla) unit, equipped with Acustar S-150 self-shielded gradient coils (+20 gauss/cm, 15 cm bore size) was used. MRI was performed with an 8.5 cm inner-diameter low-pass birdcage proton imaging coil. Successive multislice T2-weighted coronal images were obtained for up to 12 hours following occlusion. Spin-echo T2-weighted images (TR 2800, TE 80 and 160, 3 mm slices, 1 mm gap) were obtained with a field-of-view (FOV) of 80 mm in which two scans were averaged for each one of the 128 phase-encoding steps resulting in a total acquisition time of 12 minutes.
In order to evaluate the anatomic region of perfusion deficiency following MCA occlusion, cats were injected with a non-ionic T2*-shortening contrast agent, DyDTPA-BMA. The DyDTPA-BMA complex was prepared by refluxing an aqueous suspension containing stoichiometric amounts of dysprosium oxide and DTPA-BMA. The contrast agent was infused i.v. at doses of 0.25, 0.5 or 1.0 mmol/kg beginning at phase-encoding step #32 and finishing at step #60 (approximately 3 min) of T2-weighted image acquisition. DyDTPA-BMA injections were given at different time points post MCA occlusion in individual cats. After injection, the magnetic susceptibility effect was quantified for up to 60 minutes in both ischemic and normal hemispheres by comparing region-of-interest (ROI) intensity to pre-contrast T2-weighted ROI intensities. […] A signal intensity ratio was calculated as the ROI image intensity ratio of an abnormal, ischemic region over that of the normal, contralateral side. Results were expressed as the mean percentage change ±Standard Error of the Mean (X±S.E.M.)
At the conclusion of the MR protocol, 15 ml/kg of a 2% solution of 2,3,5-triphenyl tetrazolium chloride (TTC) was infused transcardially. The brain was removed from the cranium after 10–20 minutes, immersed in a 2% TTC solution for another 10–20 minutes, and then stored overnight in 10% buffered formalin in a light shielded container. The brain was sectioned coronally (2–3 mm slices) from 24–36 hours later and immediately examined for histologic evidence of ischemic damage as evidenced by pallor of TTC-staining.

[2] = test system: mice; test: LD50 i.v. administration in mice; assay type: in vivo

CNC(=O)CN(CCN(CCN(CC(=O)[O-])CC(=O)NC)CC(=O)[O-])CC(=O)[O-].[Dy+3] [DyDTPA-BMA]
Onset of signal hypertensity (relative to pre-contrast T2-weighted image): Earlier (number of cats) ([1]; 0.25 mmol/kg, 5 cats tested): 1 | Onset of signal hypertensity (relative to pre-contrast T2-weighted image): Later (number of cats) ([1]; 0.25 mmol/kg, 5 cats tested): 0 | Onset of signal hypertensity (relative to pre-contrast T2-weighted image): Same Time (number of cats) ([1]; 0.25 mmol/kg, 5 cats tested): 4 | Signal intensity ratio of injured to contralateral control tissue (relative to pre-contrast T2 weighted image): Better (number of injections) ([1]; 0.25 mmol/kg, 5 injections): 4 | Signal intensity ratio of injured to contralateral control tissue (relative to pre-contrast T2 weighted image): Same (number of injections) ([1]; 0.25 mmol/kg, 5 injections): 1 | Signal intensity ratio of injured to contralateral control tissue (relative to pre-contrast T2 weighted image): Worse (number of injections) ([1]; 0.25 mmol/kg, 5 injections): 0 | maximum signal intensity losses ([1]; 0.5 mmol/kg i.v., gray matter of normal non-occluded cerebral hemisphere, first 15 minutes after injection): 35% | Onset of signal hypertensity (relative to pre-contrast T2-weighted image): Earlier (number of cats) ([1]; 0.50 mmol/kg, 16 cats tested): 12 | Onset of signal hypertensity (relative to pre-contrast T2-weighted image): Later (number of cats) ([1]; 0.50 mmol/kg, 16 cats tested): 0 | Onset of signal hypertensity (relative to pre-contrast T2-weighted image): Same Time (number of cats) ([1]; 0.50 mmol/kg, 16 cats tested): 4 | Signal intensity ratio of injured to contralateral control tissue (relative to pre-contrast T2 weighted image): Better (number of injections) ([1]; 0.50 mmol/kg, 23 injections): 17 | Signal intensity ratio of injured to contralateral control tissue (relative to pre-contrast T2 weighted image): Same (number of injections) ([1]; 0.50 mmol/kg, 23 injections): 6 | Signal intensity ratio of injured to contralateral control tissue (relative to pre-contrast T2 weighted image): Worse (number of injections) ([1]; 0.50 mmol/kg, 23 injections): 0 | Onset of signal hypertensity (relative to pre-contrast T2-weighted image): Earlier (number of cats) ([1]; 1.0 mmol/kg, 6 cats tested): 4 | Onset of signal hypertensity (relative to pre-contrast T2-weighted image): Later (number of cats) ([1]; 1.0 mmol/kg, 6 cats tested): 0 | Onset of signal hypertensity (relative to pre-contrast T2-weighted image): Same Time (number of cats) ([1]; 1.0 mmol/kg, 6 cats tested): 2 | Signal intensity ratio of injured to contralateral control tissue (relative to pre-contrast T2 weighted image): Better (number of injections) ([1]; 1.0 mmol/kg, 16 injections): 14 | Signal intensity ratio of injured to contralateral control tissue (relative to pre-contrast T2 weighted image): Same (number of injections) ([1]; 1.0 mmol/kg, 16 injections): 2 | Signal intensity ratio of injured to contralateral control tissue (relative to pre-contrast T2 weighted image): Worse (number of injections) ([1]; 1.0 mmol/kg, 16 injections): 0 | signal intensity recovery, of pre-contrast control values ([1]; 45 minutes after administration, all cerebral tissues): at least 90% | signal difference between ischemic and contralateral control tissue ([1]; basal ganglia): 26±8% | time post-occlusion at which relative hyperintensity was found in occluded basal ganglia (as early as) ([1]; both 1 mmol/kg and 0.5 mmol/kg dosages): 30 min | difference in immediate post-contrast signal intensity on increasing dosage ([1]; dosage increased from 0.5 to 1.0 mmol/kg): only a minimal difference | signal difference between ischemic and contralateral control tissue ([1]; gray matter in the inferior parietal gyrus): 42±14% | signal difference between ischemic and contralateral control tissue ([1]; white matter in the internal capsule): 5±4% | LD50 [2]: 34 mmol/kg
